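Values below derive from 48-hour exposures of cells grown in 96-well plates, with endpoints linearly interpolated between the two concentrations bracketing the appropriate inhibition level. At the GI50, growth is halved. Definition used: TGI = concentration required for complete inhibition of growth.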
Key:
Test in all cases: NCI anticancer screen, dose series, 48 h
SF-268 CNS = system: SF-268 CNS
CCRF-CEM leukemia = system: CCRF-CEM leukemia
ACHN renal = system: ACHN renal
OVCAR-5 ovarian = system: OVCAR-5 ovarian
NCI-H226 lung = system: NCI-H226 lung
A498 renal = system: A498 renal
CAKI-1 renal = system: CAKI-1 renal

| SMILES | TGI (SF-268 CNS) [µM] | TGI (CCRF-CEM leukemia) [µM] | TGI (ACHN renal) [µM] | TGI (OVCAR-5 ovarian) [µM] | TGI (NCI-H226 lung) [µM] | TGI (A498 renal) [µM] | TGI (CAKI-1 renal) [µM] | GI50 (SF-268 CNS) [µM] | GI50 (CCRF-CEM leukemia) [µM] | GI50 (ACHN renal) [µM] | GI50 (OVCAR-5 ovarian) [nM] | GI50 (NCI-H226 lung) [µM] |
| --- | --- | --- | --- | --- | --- | --- | --- | --- | --- | --- | --- | --- |
| Brc1cc(C2OCCCO2)ccc1OCc1ccccc1 | > 100 | > 100 | > 100 | 92.5 | > 100 | > 100 | > 100 |  |  |  |  |  |
| COc1ccc(NC(=O)CC(=O)N/N=C(\C)c2cc3ccccc3oc2=O)cc1 |  | > 100 | > 100 |  | > 100 |  |  |  |  |  |  |  |
| Cc1ccc(N2C(=O)/C(=C/c3ccc(N(CCC#N)CCC#N)cc3)N=C2COc2ccc(Cl)cc2Cl)cc1 | > 100 | > 100 | > 100 | > 100 | > 100 |  | > 100 |  |  |  |  |  |
| CCCC(O)c1cn(-c2cccc(S(=O)(=O)O)c2)nn1 (centres undefined) | > 100 | > 100 | > 100 | > 100 | > 100 | > 100 | > 100 |  |  |  |  |  |
| CCCCNS(=O)(=O)c1ccc(-c2ccc3c(c2)-c2ccc(S(=O)(=O)NCCCC)cc2S3(=O)=O)cc1 | 31.3 | > 100 | > 100 | > 100 | 32 | 26.6 |  |  |  |  |  |  |
| C=CCC12CC(=O)CCC1c1ccc(OC)cc1C2=O (centres undefined) | > 100 | > 100 | > 100 | > 100 | > 100 | > 100 | > 100 |  |  |  |  |  |
| COC(=O)C(=O)C(C(=O)C(=O)Nc1ccccc1[N+](=O)[O-])c1nc2ccc([N+](=O)[O-])cc2[nH]c1=O (centres undefined) | > 100 | > 100 | > 100 | > 100 | > 100 | > 100 | > 100 |  |  |  |  |  |
| Cc1ccccc1-n1c(=S)[nH]c2c(sc(=O)n2-c2ccccc2C)c1=O | > 100 | > 100 | > 100 | > 100 | > 100 | > 100 | > 100 |  |  |  |  |  |
| O=C1OC(=O)C23CSCC12C1C=CC3O1 (centres undefined) | > 100 | > 100 | > 100 | > 100 | > 100 | > 100 | > 100 |  |  |  |  |  |
| O=c1cc[nH]cc1-c1c[nH]ccc1=O |  | > 100 | > 100 |  | > 100 | > 100 | > 100 |  |  |  |  |  |
| COc1ccc(-c2cc3ccccc3[nH]c2=O)cc1OC | > 100 | > 100 | > 100 | > 100 | > 100 |  | > 100 |  |  |  |  |  |
| CCOC(=O)c1sc2c(C(=O)OCC)n3cc(C)cc(C)c3c2c1O | > 100 | > 100 | > 100 | > 100 | > 100 |  | > 100 |  |  |  |  |  |
| CCC1CCCCN1CC(C(C)=O)C(c1ccccc1)c1c(O)c2ccccc2oc1=O (centres undefined) | > 100 | > 100 | > 100 | > 100 | > 100 | > 100 | > 100 |  |  |  |  |  |
| CC(=O)OCC1OC(n2c(=O)[nH]c(=O)c3n[nH]nc32)C(OC(C)=O)C(OC(C)=O)C1OC(C)=O (centres undefined) | > 100 | > 100 | > 100 | > 100 |  | > 100 | > 100 |  |  |  |  |  |
| O=c1c2ccccc2oc2ccccc12 (tested in a mixture with another compound) | > 100 | > 100 | > 100 |  |  | 82.5 | > 100 |  |  |  |  |  |
| O=C1C(Cl)=C(Cl)C(=O)N1c1ccc(Cl)c(Cl)c1Cl | > 100 | 45.6 | > 100 | > 100 | > 100 | > 100 | 56.2 |  |  |  |  |  |
| O=C(O)c1c2c(cc3c(=O)c4ccccc4[nH]c13)CCCC2 | > 100 | > 100 | > 100 | > 100 | > 100 |  |  |  |  |  |  |  |
| CCCCCCCC(=O)[O-].CCCCCCCC(=O)[O-].N.N.N.N.[Co+3].[O-][Cl+3]([O-])([O-])[O-] | > 100 | > 100 | > 100 | > 100 | > 100 |  |  | 19.1 | > 100 | > 100 | > 100000 | > 100 |
| CCCCCCC(=O)C/C(CCC(=O)N(Cc1ccccc1)Cc1ccccc1)=N\NC(N)=O | > 100 | > 100 | > 100 | > 100 | > 100 | > 100 | > 100 |  |  |  |  |  |
| CN1CCC(c2c(O)cc(O)c3c(=O)cc(-c4ccccc4Cl)oc23)C(O)C1 (centres undefined) | 0.238 | 19.3 |  | 0.602 | 0.305 |  |  |  |  |  | 68.7 |  |
| COC(=O)/C(C#N)=C1\CCC(OC)N1C (centres undefined) | > 100 | > 100 | > 100 | > 100 | > 100 |  | > 100 |  |  |  |  |  |
| O=C1CC(C2(O)C(=O)Nc3ccc([N+](=O)[O-])cc32)c2ccccc21 (centres undefined) | 54.7 | 61.1 | > 100 | > 100 | 92.7 | > 100 |  |  |  |  |  |  |
| CC(C)N(C(=O)C12C3C4C5(C(=O)O)C(C1C35I)C42C(=O)O)C(C)C (centres undefined) | > 100 | > 100 | > 100 | > 100 | > 100 | > 100 |  |  |  |  |  |  |

— PubChem BioAssay (NCI)
